Assays:
[1] = system: SW480 (human primary colon cancer); assay: MTT cytotoxicity assay, SW480; format: cell-based; settings: SW480, 72 h
Method: (§1) The human primary (SW480), metastatic (SW620) colon cancer, metastatic prostate cancer (PC3) and human immortal keratinocyte (HaCaT) cell lines were purchased from the American Type Culture Collection (ATCC, Rockville, USA). The cells were cultured in medium according to protocols (MEM for SW480 and SW620, RPMI 1640 for PC3 and DMEM for HaCaT cells) supplemented with 10% fetal bovine serum (FBS), penicillin (100 U/mL) and streptomycin (100 μg/mL) and cultured in 37 °C/ 5% CO2 humidified incubator. The cells were cultured until appropriate confluence was achieved (80–90%). Next, they were harvested by treatment with 0.25% trypsin (Gibco Life Technologies, USA) and used for studies.
(§2) Cells without studied compounds in medium were used as a control.
(§3) The cell viability was assessed by determination of MTT salt (3-(4,5-dimethylthiazol-2-yl)-2,5-diphenyltetrazolium bromide) conversion by mitochondrial dehydrogenase. MTT assay was performed as previously described. Experiments were repeated three times. Cell viability was presented as a percentage of MTT reduction in the treated cells versus the control cells. Number of viable cells cultured without studied compounds was assumed to be 100%. Decreased relative MTT level means decreased cell viability. Thiourea complexes with the highest cytotoxic potential assessed by MTT determination (with the lowest IC50) were chosen for subsequent assessments of cytotoxicity mechanisms.

[2] = system: SW620 (human metastatic colon cancer); assay: MTT cytotoxicity assay, SW620; format: cell-based; settings: SW620, 72 h
Method: as §1, §2
as §3, with “viability.” for “viability. Thiourea complexes with the highest cytotoxic potential assessed by MTT determination (with the lowest IC50) were chosen for subsequent assessments of cytotoxicity mechanisms.”

[3] = system: HaCaT (human immortal keratinocyte cell line); assay: MTT cytotoxicity assay, HaCaT; format: cell-based; settings: HaCaT normal cells, 72 h
Method: as §1, §2, §3

HaCaT cell = system: HaCaT cell; design: method as in PMID 30248936; settings: at the concentration 8 µM; cited from earlier work
[4] = system: PC3 (human metastatic prostate cancer); assay: MTT cytotoxicity assay, PC3; format: cell-based; settings: PC3, 72 h, MTT
Method: as §1, §2, §3

all strains = assay: MIC, all strains; format: cell-based
Method: The antimicrobial activity of the compounds was tested on Gram-positive bacteria (Staphylococcus aureus NCTC 4163, Staphylococcus aureus ATCC 25923, Staphylococcus aureus ATCC 6538, Staphylococcus aureus ATCC 29213, Staphylococcus epidermidis ATCC 12228, Staphylococcus epidermidis ATCC 35984), Gram-negative rods (Escherichia coli ATCC 10538, Escherichia coli ATCC 25922, Pseudomonas aeruginosa ATCC 15442, Pseudomonas aeruginosa ATCC 27863) and yeasts (Candida albicans ATCC 10231, Candida albicans ATCC 90028, Candida parapsilosis ATCC 22019). Hospital methicillin-resistant strains of Staphylococcus aureus and Staphylococcus epidermidis were obtained from the collection of the Department of Pharmaceutical Microbiology, Medical University of Warsaw, Poland.
Antifungal activities were assessed using Mueller–Hinton agar + 2% glucose and 0.5 µg/mL methylene blue dye medium. Sterile filter paper discs (9 mm diameter, Whatman Number 3 chromatography paper) were dripped with tested compound solutions (in dimethylsulfoxide, DMSO) to load 400 μg of a given compound per disc. […] The results (diameter of the growth inhibition zone) were read after 18 h of incubation at 35 °C. […] Minimal inhibitory concentrations (the lowest concentration of a tested agent that prevents visible growth of a microorganism) were read after 18 h (bacteria) or 24 h (yeasts) of incubation at 35 °C.

HaCaT cells [5] = system: HaCaT cells; design: method as in ref 1S; settings: also printed as 2 mM; ref 1S; cited from earlier work
colon cancer cells = system: colon cancer cells; design: method as in ref 2S; settings: at 100 μM, ref 2S; cited from earlier work
PC3 cells [6] = system: PC3 cells; design: method as in ref 3S; settings: 200 μM, ref 3S; cited from earlier work
PANC-1 = system: PANC-1; design: method as in ref 3S; settings: PANC-1, 100 μM; ref 3S; cited from earlier work
HaCaT cells [7] = assay: LDH release assay, HaCaT; format: cell-based, human; settings: doxorubicin (1.5 μM stated for the cancer lines)
Method: The presence of lactate dehydrogenase (LDH) in culture medium indicates a disturbance of the integrity of the cellular membrane. The LDH activity was performed after 72 h incubation of cells (1 × 10^4 cells per well) in 96-well plates with selected compounds according to manufacturer’s protocol (Roche Diagnostics, Germany), as was described by Chrzanowska et al.. Compound mediated cytotoxicity was determined using equation: ((A test sample−A low control)/ (A high control−A low control)) × 100% (A-absorbance), where “low control” means cells in medium with 2% FBS without tested compounds, and “high control” means cells incubated in medium with 2% FBS and 1% Triton X-100 (100% LDH release). The cytotoxicity was expressed as percentage of LDH release as compared with the maximum release of LDH from Triton-X-100-treated cells.

SW480 cells = assay: Annexin V-FITC/PI flow cytometry, SW480; format: cell-based, human; settings: SW480, 72 h
Method: (§4) The cells were cultured and harvested under the conditions described in the cell culture section. […] The effect of these compounds on the process of early and late apoptosis and necrosis was determined, as described previously, by dual staining with annexin V-FITC and propidium iodide according to manufacturer’s protocol (Becton Dickinson). The cells that were annexin V-FITC positive and PI-negative were identified as early apoptotic and annexin V-FITC and PI-positive as late apoptotic or necrotic.

SW620 cells = assay: Annexin V-FITC/PI flow cytometry, SW620; format: cell-based, human; settings: SW620, 72 h
Method: as §4

PC3 cells [8] = assay: Annexin V-FITC/PI flow cytometry, PC3; format: cell-based, human; settings: PC3, 72 h
Method: as §4

HaCaT cells [9] = assay: Annexin V-FITC/PI flow cytometry, HaCaT; format: cell-based, human; settings: 72 h
Method: as §4

interleukin-6 (IL-6) = assay: IL-6 level assay (ELISA); format: cell-based, human; settings: PC3, IC50 dose, 72 h
Method: IL-6 concentration at all studied cancer cells and normal HaCaT cell lines was measured by ELISA kit (Diaclon SAS Besancon Cedex, France). […] IL-6 in cell culture supernatant was measured using enzyme-linked immunosorbent assay in accordance with the manufacturer’s protocol.

[10] = system: clinical methicillin-resistant strains of S. aureus (MRSA) and S. epidermidis (MRSE); settings: cited from earlier work
[11] = system: standard bacterial strains; design: method as in PMID 29499458; settings: cited from earlier work

Molecule `N.N.[Cl][Pt][Cl]` [Cisplatin, reference compound] has an IC50 [1] of 10.4 ± 0.9 µM, an IC50 [2] of 6.7 ± 1.1 µM and an IC50 [3] of 6.3 ± 0.7 µM.
In the case of `O=[N+]([O-])c1cc(NC(=S)Nc2ccc(Cl)c(Cl)c2)ccc1Cl` [Compound L5, 1-(4-chloro-3-nitrophenyl)-3-(3,4-dichlorophenyl)thiourea], the “decrease in HaCaT cell viability” value (HaCaT cell) is given as “approximately 20%”.
For `[Cl][Cu][Cl]` [CuCl2, copper (II) chloride, reference compound], the IC50 [1] was 109 ± 7.6 µM, the IC50 [2] was 96.3 ± 5.2 µM and the IC50 [4] was 106 ± 6.3 µM. For the same molecule, the IC50 [3] was 114 ± 4.8 µM, the IC50 ([3]; listed as copper (II) chloride) was greater than 100 µM and the MIC (all strains) was no less than 128 µg/mL.
For `CN(C)C=O` [DMF, dimethylformamide], the “concentration at which DMF influenced HaCaT cells” value (HaCaT cells [5]) is given as 140 µg/mL, the LDH release (colon cancer cells) is given as “not increase LDH release” and the apoptosis (PC3 cells [6]) is given as 85%. The apoptosis (PANC-1) was 30%.
For `COc1cccc2c1C(=O)c1c(O)c3c(c(O)c1C2=O)C[C@@](O)(C(=O)CO)C[C@@H]3O[C@H]1C[C@H](N)[C@H](O)[C@H](C)O1` [Doxorubicin, reference compound], the IC50 ([1]; Homo sapiens) was 0.75 ± 0.1 µM, the IC50 ([3]; Homo sapiens) was 0.29 ± 0.1 µM and the LDH release (HaCaT cells [7]) was 80%. The “cells at the necrotic stage” value (SW480 cells) was 86%, the “cells at the necrotic stage” value (SW620 cells) was 51% and the “cells at the necrotic stage” value (PC3 cells [8]) was 50%. The “late apoptosis, % of cells” value (PC3 cells [8]) was 23%, the “cells at the necrotic stage” value (HaCaT cells [9]) was 42% and the “reduction of IL-6 secretion, times” value (interleukin-6 (IL-6)) was “almost twofold”.
For “copper (II) complex of 1-(3-chloro-4-fluorophenyl)-3-[3-trifluoromethyl)phenylthiourea”, the MIC [10] is given as 4 to 8 µg/mL and the MIC [11] is given as 4 to 256 µg/mL.
